From patent US20260224611A1, “POLYOL-B-POLYOXAZOLINE COPOLYMERS” (FREIE UNIVERSITÄT BERLIN, priority 2023, published 2026)

Key:
[1] = test system: infected non-diabetic wounds; assay: Wound healing animal study, infected non-diabetic wounds; assay type: in vivo; conditions: after 10 days, rats
Description: (§1) Based on these achievements, the efficiency of hPG-b-PEtO for diabetic wound healing in animals was investigated. For this purpose, an animal study was performed in two different groups of rats with infected non-diabetic wounds (FIG. 12A) and infected diabetic wounds (FIG. 12B). […] Saline buffer without additions was used as control. The ability of the copolymer to heal wounds was investigated by measuring the wound contraction at different treatment times.

infected diabetic wounds = assay: Wound healing animal study, infected diabetic wounds; assay type: in vivo; conditions: after 10 days, rats
Description: as §1

O=C1NC(=O)C(c2ccccc2)(c2ccccc2)N1 [phenytoin]
wound closure area [1]: 90% | wound closure area (infected diabetic wounds): 62%
